Experimental data taken from patent publication US20250008983A1, “COMPOSITIONS CONTAINING PEROXYACIDS TO CONTROL PATHOGEN GROWTH IN ANIMAL FEED AND RELATED METHODS” (KEMIN INDUSTRIES, INC., priority 2023, published 2025).
Values after ≈ are worked out from the molar mass of the structure shown. Values joined by “and” are separate entries in the source; they are usually repeats but may differ in a detail not shown here. Equal values may be shown once. Marks after values point to notes of the source that are not given here.

Experiments:
[1] = test system: Escherichia coli ATCC 25922; assay: Minimum inhibitory concentration (MIC), broth microdilution; format: cell-based
Protocol: Materials and Methods. The assay was conducted to determine the minimum inhibitory concentration (MIC) of peroxy-acids against Escherichia coli ATCC 25922. E. coli was purchased from American Type Culture Collection (ATCC). The strain was stored at −80° C. in glycerol. Prior to usage, E. coli was revived by streaking a loopful of culture onto TSAYE (i.e., tryptone soya agar yeast extract (CM0131 and LP0021; Oxoid) prepared as per recommended by Oxoid) with overnight incubation at 37° C. An overnight culture of E. coli was diluted in TSBYE (i.e, tryptone soya broth yeast extract (CM0129; Oxoid) prepared as per recommended by Oxoid) to obtain a cell suspension of ca. 10^5 CFU/mL. Subsequently, 100 μL of the diluted culture was added to 100 μL of the test solutions at the needed concentrations into a microtiter plate (92096; TPP Techno Plastic Products AG). Peroxy-acids were tested at an active concentration of 25-1600 μg/mL. Subsequently, the inoculated plate was incubated at 37° C. up to 48 hours with the bacterial cell density recorded at optical density (OD) 600 nm at 24 hours interval using a microplate reader (Varioskan LUX; Thermo Fisher).

[2] = test system: Salmonella enteriditis ATCC 13076; assay: DNA interaction Assay 2: treatment added to cells followed by extraction; format: cell-based; conditions: 1 kg/T; two hours at 37° C.; n = 3
Protocol: (§1) Method (Assay 1: Treatment added to extracted DNA directly). One mL of cell suspension (ca. 10^8 cfu/mL in TSBYE) was harvested by centrifugation at 5000 rcf for 10 minutes. The supernatant was discarded and resuspended as detailed in the protocol provided by the supplier. DNA was extracted using the QIAamp DNA Mini kit (Cat #51304, Qiagen). The samples were incubated at 56° C. for two hours and eluted with 200 uL of nuclease-free water. The same eluent was run through the column twice to increase the DNA concentration. Extracted DNA was quantified using Quant-iT dsDNA high-sensitivity assay kit (Q33120; Thermo Fischer Scientific). Extracted DNA was subsequently treated with the different treatment groups with a final concentration of 1 kg/T (prepared in 10 mM PBS). 1.5 uL of treatment solution (prepared at 10 times higher concentration) is added to 13.5 uL of extracted DNA. The solution was mixed well and left to stand at room temperature for one hour. After one hour, the solution was diluted with nuclease-free water 10 times. DNA was subsequently quantified using Quant-iT dsDNA high-sensitivity assay kit (Q33120; Thermo Fischer Scientific). Method (Assay 2: Treatment added to cells followed by extraction). […] Extracted DNA was quantified using Quant-iT dsDNA high-sensitivity assay kit (Q33120; Thermo Fischer Scientific). […]

[3] = test system: cocktail of four freeze-dried salmonella strains; assay: Peroxypropionic acid efficacy against Salmonella in swine feed; format: cell-based, Salmonella typhimurium, senftenberg, montevideo, enteritidis; conditions: for Average CFU/g feed / Log CFU/g / Total CFU: 4 h; for Total counts in CFU at 4 h (n = 5): swine mash feed, PPA with sodium phosphate buffer (9:1), ~pH 7-8, five replicate cells
Description: Swine mash feed contains a bigger particle size of corn-soy matrix compared to broiler mash feed. Thus, it could pose a challenge to expect the same antimicrobial efficacy as observed in broiler feed due to the shielding effect. Therefore, to maximize the efficacy of the peroxypropionic acid on the swine feed, an optimal droplet size of the peroxypropionic acid was required to ensure maximum distribution of the product onto the feed. Swine mash feed of 25 g was taken in five individual bags and inoculated with 10 mg cocktail of four freeze-dried salmonella strains of Salmonella typhimurium ATCC 14028, Salmonella senftenberg ATCC 43485, Salmonella montevideo ATCC 8387, and Salmonella enteritidis ATCC 13076 in such a way that the total infection in the feed was ˜2 logs. Then, the feed samples were treated with peroxypropionic acid solution (˜17% PPA, 7% H2O2) and sodium phosphate buffer premix (9:1 ratio) at 1.5 kg/T, 3 Kg/T, and 6 Kg/T. The feed was enumerated completely for Salmonella count using EB plates at 4 h after treatment. Two untreated controls, NC-A and NC-B were kept as negative controls to represent the infection in the feed.

extracted Salmonella DNA = assay: DNA interaction Assay 1: treatment added to extracted DNA directly; format: biochemical; conditions: 1 kg/T; one hour at room temperature; n = 3
Protocol: as §1

[4] = Stability of PPA in various diluent (peroxy value by titrimetry); format: physicochemical
Protocol: Stability of PPA in various diluent. In a separate study, the peroxy value of the mixture was estimated using the titrimetry procedure in 10 minutes and after 4 h of preparing the PPA solution with different diluents.
The peroxy acid value of PPA, when diluted with different diluents, is summarized below in Table 12.

[5] = 2.5% ammonium hydroxide, after 10 minutes
[6] = 2.5% ammonium hydroxide, after 240 minutes
[7] = 5% sodium hydroxide, after 10 minutes
[8] = 5% sodium hydroxide, after 240 minutes
[9] = Deionized Water, after 10 minutes
[10] = Deionized Water, after 240 minutes
[11] = Sodium phosphate buffer, after 10 minutes
[12] = Sodium phosphate buffer, after 240 minutes

CCC(=O)OO [Perpropionic acid, perpropionic acid]
Minimum inhibitory concentration (μg/mL) against E. coli ([1]; no increment in OD over 48 hours, 37° C.): 500 µg/mL (≈ 5.55 mM) | MIC ([1]; preliminary results): 500 ppm | DNA concentration, Average ± SD, Assay 2 [2]: 34.97 ± 4.54^a ng/uL | Average CFU/g feed ([3]; 1.5 Kg/T): 18 CFU/g feed | Log CFU/g ([3]; 1.5 Kg/T): 1.26 Log CFU/g | Total CFU ([3]; 1.5 Kg/T): 90 CFU | Average CFU/g feed ([3]; 3 Kg/T): 0 CFU/g feed | Log CFU/g ([3]; 3 Kg/T): 0.00 Log CFU/g | Total CFU ([3]; 3 Kg/T): 0 CFU | Average CFU/g feed ([3]; 6 Kg/T): 0 CFU/g feed | Log CFU/g ([3]; 6 Kg/T): 0.00 Log CFU/g | Total CFU ([3]; 6 Kg/T): 0 CFU | Total counts in CFU at 4 h (n = 5) ([3]; 1.5 Kg/T, listed as PPA): 20 CFU and 10 CFU (2×) and 50 CFU and 0 CFU | Total counts in CFU at 4 h (n = 5) ([3]; 3 Kg/T): 0 CFU | Total counts in CFU at 4 h (n = 5) ([3]; 6 Kg/T): 0 CFU | DNA concentration, Average ± SD, Assay 1 (extracted Salmonella DNA): 42.8 ± 2.9^b ng/uL | pH ([4]; 2 g PPA + 8 g 2.5% ammonium hydroxide): 6.11 | pH ([4]; 2 g PPA + 8 g 5% sodium hydroxide): 5.44 | pH ([4]; 2 g PPA + 8 g Deionized Water): 1.77 | pH ([4]; 2 g PPA + 8 g Sodium phosphate buffer): 5.34 | H2O2 (%) [4, 5]: 1.85% | PPA (%) [4, 5]: 4.18% | H2O2 (%) [4, 6]: 2.34% | PPA (%) [4, 6]: 3.31% | H2O2 (%) [4, 7]: 1.47% | PPA (%) [4, 7]: 4.4% | H2O2 (%) [4, 8]: 1.12% | PPA (%) [4, 8]: 2.55% | H2O2 (%) [4, 9]: 1.85% | PPA (%) [4, 9]: 5.54% | H2O2 (%) [4, 10]: 1.96% | PPA (%) [4, 10]: 4.75% | H2O2 (%) [4, 11]: 1.92% | PPA (%) [4, 11]: 5.82% | H2O2 (%) [4, 12]: 1.88% | PPA (%) [4, 12]: 5.19%
